Where two headings read alike, the source gives them in different places.
Columns and labels:
[1] = conventional formulations; cited from earlier work
[2] = hygroscopicity; assay type: physicochemical
[3] = physical stability of the amorphous micronised active substance in powder mixtures with excipients; assay type: physicochemical
From the text: It is known that the amorphous state of solids is thermodynamically unstable. In particular, this contributes to the fact that microparticles which have amorphous parts or are purely amorphous are metastable in their physicochemical properties. Typically, amorphous or partially amorphous pharmaceutical active substances and excipients, such as sugars, for example, recrystallise spontaneously during storage under normal conditions. The process may be accelerated by an increase in the relative humidity and possibly the temperature. In association with this recrystallisation, the particles change their surface characteristics, their particle morphology and their particle size.

[4] = specific surface area (multi point BET, nitrogen); assay type: physicochemical; conditions: air-jet-ground, anhydrous
From the text: • Measuring method: In order to determine the particle size the powder is fed into a laser diffraction spectrometer using a dispersing unit. The median value X50 refers to the particle size below which 50% of the quantity of particles fall. The Q(5.8) value describes the percentage of particles which are less than 5.8 μm in size. • Measuring device: Laser diffraction spectrometer (HELOS), Messrs. • Sympatec • Software: WINDOX Version 3.3/REL 1 • Dispersing unit: RODOS/dispersing pressure: 3 bar • Focal length: 100 mm [measuring range: 0.9 . . . . 175 μm] • Evaluation method: HRLD (V 3.3 Rel. 1) b) Determining the Specific Surface Area: • Measuring method: The specific surface is determined by exposing the powder sample to a nitrogen atmosphere at different pressures.
Cooling the sample causes the nitrogen molecules to be condensed on the surface of the particles. The quantity of condensed nitrogen is determined by means of the drop in pressure in the system and the specific surface area of the sample is calculated by means of the surface nitrogen requirement and the weight of the sample. • Measuring device: Tri Star Multi Point BET, Messrs. Micromeritics • Heating station: VacPrep 061, Messrs. Micromeritics
Heating: approx. 12 h/40° C.

[5] = systemic bioavailability after pulmonary or nasal inhalation; assay type: in vivo; conditions: powder mixture with excipients, inhaled

hygroscopicity [2]: hygroscopic | hygroscopicity ([2]; listed as active substance): strongly hygroscopic | amorphous form on storage (X-ray powder diffractometry) ([3]; amorphous micronised particles, shelf life of the medicament): maintained throughout the shelf life | physical stability ([3]; powder mixtures with excipients): physically stable | specific surface area [4]: 20.2 m^2/g | bioavailability by pulmonary or nasal inhalation [5]: sufficiently bioavailable
Compound: NCCCC[C@H](NC(=O)[C@@H](Cc1cc(Br)c(O)c(Br)c1)NC(=O)N1CCC(N2Cc3ccccc3NC2=O)CC1)C(=O)N1CCN(c2ccncc2)CC1 [A, 1-[N^2-[3,5-dibromo-N-[[4-(3,4-dihydro-2(1H)-oxoquinazolin-3-yl)-1-piperidinyl]carbonyl]-D-tyrosyl]-L-lysyl]-4-(4-pyridinyl)-piperazine]
oral bioavailability [1]: very limited oral bioavailability

— patent US20060222599A1, “Inhalative powder formulations containing the CGRP-antagonist 1 [N2-[3,5-dibromo-N-[[4-(3,4-dihydro-2(1H)-oxoquinazolin-3-yl)-1-piperidinyl]carbonyl]-D-tyrosyl]-L-lysyl]-4-(4-pyridinyl)-piperazine” (Boehringer Ingelheim International GmbH, priority 2003, published 2006)
